Measurements reported in patent US7932382B2, “Conformationally constrained Smac mimetics and the uses thereof” (The Regents of the University of Michigan, priority 2005, dated 2011).
Each block holds one molecule with its values, some of them ahead of it. Where a SMILES comes first, the peptide text is derived from it. [ ]: non-standard residue; d: D form. The star is where a group is joined. 6FAM = O=C1OC2(c3ccc(O)cc3Oc3cc(O)ccc32)c2cc(C(=O)*)ccc21; Abu = CC[C@H](N)C(=O)O

How the values were obtained:
[1] = system: PC-3 cells; experiment: Apoptosis by Annexin V-FITC staining in PC-3 cells; assay type: cell-based, human; settings: for potentiation of the activity of CDDP in inducing apoptosis: PC-3 cells
Procedure: PC-3 cells were treated with CDDP, Smac peptides and mimetics alone or in combination for 42 hours and apoptosis was analyzed by Annexin V-FITC staining. […] Combination of 25 μM CDDP and 10 μM or 25 μM SH-97 induced 29.3%±1.9% and 35.8%±0.4% apoptosis over control cells, respectively (FIG. 10A).
Similar experiments were performed with SH-102 (Table 5). PC-3 cells in 6-well plates were treated with SH-102 and CDDP, alone or on combination, for 42 hours. Cells were collected and stained with Annexin V-FITC and propidium iodide. The fluorescence of Annexin V-FITC and propidium iodide of individual cells was analyzed by flow cytometry. […] Combination of 25 μM CDDP and 10 μM SH-102 induced 32% apoptosis over control cells (FIG. 11).
The same experiment was performed using TAXOTERE (docetaxel), another cancer chemotherapeutic drug. PC-3 cells in 6-well plates were treated with SH-102 and TAXOTERE, alone or in combination, for 42 hours. Cells were collected and stained with Annexin V-FITC and propidium iodide. The fluorescence of Annexin V-FITC and propidium iodide of individual cells was analyzed by flow cytometry. […] Combination of 10 μM taxotere and 10 μM SH-102 induced about 18% apoptosis over control cells (FIG. 13).

[2] = system: MDA-435, MDA468, and T47D cells; experiment: Cell growth inhibition (WST-8) in breast cancer cell lines; assay type: cell-based, human; settings: all three cell lines, 5 days
Procedure: To test the effect of Smac mimetics by themselves in inhibition of cell growth in human cancer cells, SH-102 was administered to three different breast cancer cell lines. MDA-435, MDA468, and T47D cells were seeded in 96-well plates with increasing concentrations of SH-102, Smac8, or Smac8-C. The cells were then incubated at 37° C. with 5% CO2 for 5 days, followed by detection of cell viability with WST-8. Untreated cells were used as 100% growth. […]. […] (FIGS. 18A-18C).

[3] = system: MDA-231 cells; experiment: Apoptosis by Annexin V-FITC/propidium iodide flow cytometry in MDA-231 cells; assay type: cell-based, human; settings: for potentiation of the activity of CDDP in inducing apoptosis: MDA-231 cells; for cells undergoing apoptosis as compared to control cells: 42 hours
Procedure: Similar experiments were performed using the breast cancer cell line MDA-231. MDA-231 cells in 6-well plates were treated with SH-102 and CDDP, alone or on combination, for 42 hours. Cells were collected and stained with Annexin V-FITC and propidium iodide. The fluorescence of Annexin V-FITC and propidium iodide of individual cells was analyzed by flow cytometry. 25 μM and 50 μM CDDP induced about 25% and 42% of MDA-231 cells to undergo apoptosis as compared to control cells, respectively (FIG. 14). […] Combination of 25 and 50 μM CDDP and 10 μM SH-102 induced about 35% and 75% apoptosis over control cells, respectively (FIG. 14).

[4] = target: T1, human XIAP-BIR3 protein (residues 241-356) (Homo sapiens, UniProt P98170); experiment: biochemical
T1 sequence (P98170 241-356): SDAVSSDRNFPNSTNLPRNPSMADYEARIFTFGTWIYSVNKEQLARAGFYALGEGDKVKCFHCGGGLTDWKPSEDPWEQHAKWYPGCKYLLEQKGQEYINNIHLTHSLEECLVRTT

[5] = target: T1, human XIAP-BIR3 protein (residues 241-356); experiment: Fluorescence polarization saturation (direct) binding of labeled Smac peptides; parameters: The human XIAP-BIR3 protein (residues 241-356) with a His tag; settings: 5 nM labeled peptide titrated with 0 to 40 μM protein; read-out: Kd value (dissociation constant to XIAP-BIR3)
[6] = target: XIAP (Homo sapiens, UniProt P98170); settings: cited from earlier work
XIAP, sequence (P98170 whole entry): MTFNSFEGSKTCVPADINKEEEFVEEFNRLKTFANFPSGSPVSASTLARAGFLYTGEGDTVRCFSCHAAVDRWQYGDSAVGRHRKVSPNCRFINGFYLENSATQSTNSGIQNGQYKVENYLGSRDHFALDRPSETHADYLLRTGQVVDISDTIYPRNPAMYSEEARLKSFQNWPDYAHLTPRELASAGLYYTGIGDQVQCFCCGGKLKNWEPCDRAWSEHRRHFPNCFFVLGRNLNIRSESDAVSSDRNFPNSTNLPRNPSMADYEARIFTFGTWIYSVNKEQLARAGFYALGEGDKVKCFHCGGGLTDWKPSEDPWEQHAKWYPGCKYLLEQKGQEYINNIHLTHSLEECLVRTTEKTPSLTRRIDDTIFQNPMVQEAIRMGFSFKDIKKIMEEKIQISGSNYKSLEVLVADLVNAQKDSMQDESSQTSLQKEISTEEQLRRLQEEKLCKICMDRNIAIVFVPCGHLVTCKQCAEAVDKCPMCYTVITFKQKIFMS

Molecule: AVPIAQKS [Smac8, Smac peptide without a carrier peptide, negative control]
potentiation of the activity of CDDP in inducing apoptosis [1]: unable to potentiate
inhibition of cell growth (in words) [2]: essentially ineffective
potentiation of the activity of CDDP in inducing apoptosis [3]: unable to potentiate

Molecule: CCC[C@H](N)C(=O)N[C@H]1CC[C@H]2CC[C@@H](C(=O)NCc3ccccc3)N2C1=O [SH-93]
potentiation of the activity of CDDP in inducing apoptosis [1]: unable to potentiate
potentiation of the activity of CDDP in inducing apoptosis [3]: unable to potentiate

Ki [4]: > 200000 nM
Molecule: CCC(CC)CNC(=O)[C@@H]1CC[C@@H]2CC[C@H](NC(=O)[C@H](C)N)C(=O)N21 [SH-76]

Molecule: CC[C@H](N)C(=O)N[C@H]1CCC[C@H]2CC[C@@H](C(=O)NC(c3ccccc3)c3ccccc3)N2C1=O [Compound 34]
apoptosis compared to untreated cancer cells ([1]; SH-102 alone up to 100 μM, 42 hours): did not induce significantly more apoptosis

Kd [5]: 17.9 nM
Molecule: CC[C@H](N)C(=O)N[C@@H](CCCNC(=N)N)C(=O)N1CCC[C@H]1C(=O)N[C@@H](Cc1ccccc1)C(=O)N[C@@H](CCCCNC(=O)c1ccc2c(c1)C1(OC2=O)c2ccc(O)cc2Oc2cc(O)ccc21)C(N)=O [SM5F, AbuRPFK-FAM] (H-[Abu]RPFK(6FAM)-NH2; N-terminus and C-terminus assumed)

Molecule: [NH2][Pt]([NH2])([Cl])[Cl] [CDDP, cisplatin]
cancer cells undergoing apoptosis as compared to control cells ([1]; 50 μM CDDP alone, 42 hours): ~25%
cells undergoing apoptosis as compared to control cells ([3]; 25 μM CDDP alone): about 25%
cells undergoing apoptosis as compared to control cells ([3]; 50 μM CDDP alone): ~42%

B1: mature Smac protein: mature Smac/DIABLO protein, endogenous inhibitor of XIAP (protein, UniProt Q9NR28 22-239, looked up)
Diablo IAP-binding …: LCVPVVANFKKRCFSELIRPWHKTVTIGFGVTLCAVPIAQKSEPHSLSSEALMRRAVSLVTDSTSTFLSQTTYALIEAITEYTKAVYTLTSLYRQYTSLLGKMNSEEEDEVWQVIIGARAEMTSKHQEYLKLETTWMTAVGLSEMAAEAAYQTGADQASITARNHIQLVKLQVEEVHQLSRKAETKLAEAQIEELRQKTQEEGEERAESEQEAYLRED
Kd [6]: 420 nM
